Measurements as given in paper PMC9860708, “Parent-Metabolite Pharmacokinetic Modeling of Formononetin and Its Active Metabolites in Rats after Oral Administration of Formononetin Formulations” (Pharmaceutics, 2022).
Read-outs that look alike come from different tables or passages of the source.

Experiments:
[1] = Pharmacokinetic evaluation after oral administration of FMN solution and formulations (non-compartmental analysis); conditions: 20 mg/kg FMN, all three groups
Description: The animals were maintained in the temperature and humidity range of 25 ± 1 °C and 50 ± 5% RH, respectively, over the acclimation period. To minimize the effects of food on pharmacokinetic profile of isoflavones, the animals were fasted overnight with free access to water.
Animals were allocated equally into 3 groups (5 rats per group). […] The blood samples were immediately centrifuged (10,000× g, 10 min, 4 °C) to obtain plasma samples and was stored at −80 °C.
Determination of the four isoflavones and DZN-d4 (internal standard, IS) in samples were conducted using Acquity UPLC system (Waters Corp., Milford, MA, USA) coupled to Xevo TQ-S triple quadrupole mass spectrometry (Waters Corp., USA) with electrospray (ESI) source. The chromatographic separations of the four isoflavones was performed in a Kinetex C18 column (2.1 × 100 mm, 1.7 μm particle size, Phenomenex, Torrance, CA, USA) at 40 ± 0.5 °C. The mobile phase consisted of water (mobile phase A) and acetonitrile (mobile phase B) with gradient elution at a flow rate of 0.2 mL/min. […] The optimized collision energy of FMN, DZN, DHD, EQL and IS were −22, −38, −22, −15 and −38, respectively. Data acquisition and analysis were achieved using Masslynx 4.1 software (Waters Corp., USA).
The samples were extracted by protein precipitation using methanol. 50 μL of rat samples were added with 10 μL of the IS solution (10 μg/mL of DZN-d4 in 50% methanol) to correct the loss of analytes during sample preparation. 100 μL of methanol was added to the mixed sample, vortexed for 1 min and centrifuged at 15,000× g for 5 min. Then, 5 μL of aliquots were injected into the UPLC-MS/MS system. The method validation was performed according to the FDA guideline for industry bioanalytical method validation.
PK parameters such as the maximum plasma concentration (Cmax) and the time to reach Cmax (Tmax) were determined from plasma concentration-time curve. The linear trapezoidal rule was used to calculate area under the curve to the final measured concentration (AUC0-t), then area from Clast to area expolated to infinity was added to AUC0-t to integrate AUC0-∞. […] The PK analysis was performed using WinNonlin® software (version 8.2, Certara™ Company, Princeton, NJ, USA). Then, a PK model was developed for FMN and its metabolites following oral administration of solution or formulations. The model was implemented in the WinNonlin model with NLME engine and estimated using the naïve-pooled and First Order Conditional Estimation-Extended Least Squares (FOCE-ELS) algorithms. […]

[2] = Plasma protein binding assay (ultrafiltration, Centrifree); assay type: in vitro ADME; conditions: male SD rat plasma, n = 3
Description: The plasma protein binding of FMN, DZN, DHD and EQL was estimated using Ultra-filtration method using Centrifree® micro-partition system (Amicon Inc., Lexington, MA, USA). The experiment was conducted at concentrations of 50, 150, 500 and 1000 ng/mL (n = 3) for all four compounds in male SD rat plasma. The spiked plasma samples were allowed to equilibrate for at least 15 min before it was put into Centrifree® ultrafiltration tubes. The tubes were centrifuged at 1000× g for 15 min at 37 °C. Then, compound concentrations in the ultrafiltrate buffer (CUF) and plasma in the sample reservoir (Ctotal) were quantitated by the anlytical method described in Section 2.3. The plasma protein binding rate was calculated using the following formula: Plasma protein binding (%)=[…]

[3] = design: method as in PMID 12714433; conditions: humans; cited from earlier work
[4] = design: method as in PMID 21266188; conditions: female rat plasma, cited from earlier work
[5] = cited from earlier work
[6] = tested on: human serum albumin; conditions: concentration levels of 3–15 μM DZN, ref Song et al. 23; cited from earlier work
[7] = oral 20 mg/kg FMN dissolved in 0.5% CMC-Na, male Sprague Dawley rats

Detection of analyte in rat plasma after oral administration of FMN [1] | fraction unbound at 15 min, 50 ng/mL [2] | fraction unbound at 15 min, 150 ng/mL [2] | fraction unbound at 15 min, 500 ng/mL [2] | fraction unbound at 15 min, 1000 ng/mL [2] | SMILES | FMN excreted intact [3] | Plasma protein binding ([4]; 50 ng/mL) [%] | Plasma protein binding ([4]; 150 ng/mL) [%] | Time at which the peak plasma concentration was reached ([5]; 2–50 mg/kg FMN orally administered, rats) [h] | oral bioavailability (F) ([5]; FMN solution dissolved in 0.5% CMC-Na, rats) [%] | clearance of FMN ([5]; intravenous administration, rats) [mL/min/kg] | AUCinf [5, 7] [µM·h] | Cmax [5, 7] [nM] | unbound DZN [6] [µM]
not quantitated | 0.118 | 0.126 | 0.12 | 0.132 | O=C1c2ccc(O)cc2OCC1c1ccc(O)cc1 (stereo not shown) [DHD, Dihydrodaidzein] | – | – | – | – | – | – | – | – | –
detected | 0.116 | 0.0664 | 0.145 | 0.082 | COc1ccc(-c2coc3cc(O)ccc3c2=O)cc1 [FMN, Formononetin] | about 25% | 93.61 ± 0.44 | 96.14 ± 0.15 | 0.5 to 1 | 21.8 | 83 | 0.7577 ± 0.0482 | 302 ± 35.9 | –
not quantitated | – | 0.0131 | 0.0138 | 0.022 | Oc1ccc([C@H]2COc3cc(O)ccc3C2)cc1 [EQL, Equol] | – | – | – | – | – | – | – | – | –

SMILES | Detection of analyte in rat plasma after oral administration of FMN [1] | fraction unbound at 15 min, 50 ng/mL [2] | fraction unbound at 15 min, 150 ng/mL [2] | fraction unbound at 15 min, 500 ng/mL [2] | fraction unbound at 15 min, 1000 ng/mL [2] | FMN excreted intact [3] | Plasma protein binding ([4]; 50 ng/mL) [%] | Plasma protein binding ([4]; 150 ng/mL) [%] | Time at which the peak plasma concentration was reached ([5]; 2–50 mg/kg FMN orally administered, rats) [h] | oral bioavailability (F) ([5]; FMN solution dissolved in 0.5% CMC-Na, rats) [%] | clearance of FMN ([5]; intravenous administration, rats) [mL/min/kg] | AUCinf [5, 7] [µM·h] | Cmax [5, 7] [nM] | unbound DZN [6] [µM]
O=c1c(-c2ccc(O)cc2)coc2cc(O)ccc12 [DZN, Daidzein] | detected | 0.0456 | 0.0342 | 0.0569 | 0.0531 | – | – | – | – | – | – | – | – | 0.889 to 6.398
